Where two headings read alike, the source gives them in different places.

The source of these data is patent publication US20250108123A1, “COMPOUND-LINKER […] COMPOUNDS USEFUL AS STING AGONISTS AND USES THEREOF” (priority 2021, published 2025).

The target of the experiment is human STING WT (Homo sapiens (Human), UniProt Q86WV6). The experiment can be described thus: biochemical. It is filed as binding. As to the method: Cisbio Bioassays' human STING WI binding assay (#64BDSTGPEG & 64BDSTGPEH, Cisbio) is for quantitative measurement of human STING WI ligand using HTRF® technology.
human STING WT, sequence (Q86WV6 whole entry): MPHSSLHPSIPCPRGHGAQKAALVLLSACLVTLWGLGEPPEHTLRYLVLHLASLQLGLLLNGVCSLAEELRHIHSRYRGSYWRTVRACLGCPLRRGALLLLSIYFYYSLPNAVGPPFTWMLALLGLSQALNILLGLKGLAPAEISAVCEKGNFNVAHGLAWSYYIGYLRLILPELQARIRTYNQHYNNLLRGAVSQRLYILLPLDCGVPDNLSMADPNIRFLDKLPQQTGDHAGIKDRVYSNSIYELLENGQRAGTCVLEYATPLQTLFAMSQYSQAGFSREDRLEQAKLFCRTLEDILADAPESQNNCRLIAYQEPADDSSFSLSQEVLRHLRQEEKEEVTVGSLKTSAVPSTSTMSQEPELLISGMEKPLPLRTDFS
Negative control: Dispense 5 μL of diluent into each negative control well. Standard: Dispense 5 μL of each Human STING WI Standard 2′3′-cGAMP (Std 0-Std 7) into each standard well. Compound: Dispense 5 μL of compound into each compound well.
Negative control: Add 5 μL of detection buffer to all wells. Other wells: Add 5 μL of human STING WT protein 6His-tagged protein to all wells.
Add 10 μL of premixed STING WT ligand d2 reagent and 6His Tb antibody working solution to all wells.
Seal the plate and incubate 3 hours at RT or at Over Night if necessary.
Remove the plate sealer and read on an HTRF® compatible reader (PerkinElmer, USA). Results were analyzed with a two-wavelength signal ratio: intensity (665 nm)/intensity (620 nm).
Cisbio Bioassays' human STING WT binding assay (#64BDSTGPEG & 64BDSTGPEH, Cisbio) is for quantitative measurement of human STING WT ligand using HTRF® technology.
Negative control: Dispense 5 μL of diluent into each negative control well. Standard: Dispense 5 μL of each Human STING WT Standard 2′3′-cGAMP (Std 0—Std 7) into each standard well. Compound: Dispense 5 μL of compound into each compound well.
[formula] • Fit the data in GraphPad to obtain IC50 values using equation (2)

Where [1] appears, read: HTRF, human STING WT 6His-tagged protein, incubation 3 hours at RT, read-out: hSTING WT binding IC50/nM.
[2] abbreviates: human STING WT, HTRF binding assay, read-out: hSTING WT binding IC50.

Regarding `COc1cc2c(cc1CN(C)Cc1cc3c(cc1OC)CN(C(=O)CCC(=O)O)C3)CN(C(=O)CCC(=O)O)C2` [Example I-7, 4,4′-(((methylazanediyl)bis(methylene))bis(6-methoxyisoindoline-5,2-diyl))bis(4-oxobutanoic acid)], the IC50 under setting [1] was > 150 nM.
`COc1cc2c(cc1OCCCOc1c(OC)cc3c(c1Cl)CN(C(=O)CCC(=O)O)C3)CN(C(=O)CCC(=O)O)C2` [Example I-8, 4-(5-(3-((2-(3-carboxypropanoyl)-4-chloro-6-methoxyisoindolin-5-yl)oxy)propoxy)-6-methoxyisoindolin-2-yl)-4-oxobutanoic acid]: under setting [1], the IC50 is > 150 nM.
Still for that read-out and setting: as for `C=C(COc1c(OC)cc2c(c1Cl)CN(C(=O)CCC(=O)O)C2)COc1c(OC)cc2c(c1Cl)CN(C(=O)CCC(=O)O)C2` [Example I-11, 4,4′-(((2-methylenepropane-1,3-diyl)bis(oxy))bis(4-chloro-6-methoxyisoindoline-5,2-diyl))bis(4-oxobutanoic acid)], the figure is > 150 nM; as for `COc1cc2c(c(Cl)c1OCCCOc1c(OC)cc3c(c1Cl)CN(C(=O)CCC(=O)O)C3)CN(C(=O)CCC(=O)O)C2` [Example I-12, 4,4′-((propane-1,3-diylbis(oxy))bis(4-chloro-6-methoxyisoindoline-5,2-diyl))bis(4-oxobutanoic acid)], > 150 nM.
On to `COc1cc2c(cc1OCCCOc1cc3cc(C(=O)CCC(=O)O)sc3cc1O)CN(C(=O)CCC(=O)O)C2` [II-7, sodium 4-(5-(3-((2-(3-carboxylatopropanoyl)-6-hydroxybenzo[b]thiophen-5-yl)oxy)propoxy)-6-methoxyisoindolin-2-yl)-4-oxobutanoate], for which the IC50 is 0.36 nM.
`COc1cc2c(cc1OCCCOc1nc3cc(C(=O)CCC(=O)O)sc3cc1OC)CN(C(=O)CCC(=O)O)C2` [II-8, sodium 4-(5-(3-((2-(3-carboxylatopropanoyl)-6-methoxyisoindolin-5-yl)oxy)propoxy)-6-methoxythieno[3,2-b]pyridin-2-yl)-4-oxobutanoate]: the IC50 under setting [2] turned out to be 1.04 nM.
Regarding `COc1cc2c(cc1OCCCOc1cc3cc(C(=O)CCC(=O)O)sc3cc1Br)CN(C(=O)CCC(=O)O)C2` [II-9, 4-(5-(3-((6-bromo-2-(3-carboxypropanoyl)benzo[b]thiophen-5-yl)oxy)propoxy)-6-methoxyisoindolin-2-yl)-4-oxobutanoic acid], the IC50 worked out at 0.65 nM.
Consider `C=C(COc1c(OC)cc2c(c1Cl)CN(C(=O)CCC(=O)O)C2)COc1c(OC)cc2sc(C(=O)CCC(=O)O)cc2c1F` [II-16, 4-(5-((2-(((2-(3-carboxypropanoyl)-4-chloro-6-methoxyisoindolin-5-yl)oxy)methyl)allyl)oxy)-4-fluoro-6-methoxybenzo[b]thiophen-2-yl)-4-oxobutanoic acid], for which the IC50 under setting [2] was > 150 nM.
